Measured values reported in US20160015743A1, “METHODS FOR TREATING CANCER” (priority 2013, published 2016).
Where a SMILES comes first, the peptide text is derived from it. The star is where a group is joined. Cbz = O=C(OCc1ccccc1)*

How the values were obtained:
cyclin D1 [1] = target: T1, cyclin D1 (Homo sapiens, UniProt P24385, T286A); assay: In vivo SUMOylation and ubiquitylation assay (co-immunoprecipitation, western blotting); type: cell-based; settings: HCT-116 cells stably expressing T286A mutant cyclin D1, treated 1 and 16 hours
T1 construct: endogenous in cells; host or cells: HCT-116
T1 sequence (P24385 whole entry T286A): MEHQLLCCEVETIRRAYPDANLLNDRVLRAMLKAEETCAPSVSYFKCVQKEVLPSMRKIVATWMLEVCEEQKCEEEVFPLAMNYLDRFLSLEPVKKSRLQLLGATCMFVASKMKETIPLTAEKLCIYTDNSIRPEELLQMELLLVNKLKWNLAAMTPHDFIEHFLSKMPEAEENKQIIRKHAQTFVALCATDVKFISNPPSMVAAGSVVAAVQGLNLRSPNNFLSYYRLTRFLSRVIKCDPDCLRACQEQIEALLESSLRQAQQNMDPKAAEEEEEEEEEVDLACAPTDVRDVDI
Method: (§1) (a, b&d) In vivo SUMOylation and ubiquitination assay. As for (a), HCT-116 cells were treated with As2O3 for 16 h (2.5 μM). Cell lysates were harvested at different time points (0, 1, 4 and 16 h). As for (b), WT or mutant cyclin D1 (K149R, T286A, DM) construct was stably transfected into HCT-116 cells. Then the cells were treated with As2O3 for 1 h. As for (d), HCT-116 cells were treated with As2O3 for 16 h (2.5 μM) in the absence or presence of MG132 (10 μM, 6 h of incubation). The SUMOylated and ubiquitylated cyclin D1 was detected as described in FIG. 1f. Cyclin D1 protein levels were detected using anti-cyclin D1 antibody (a&d) or anti-HA-antibody (b) by western blotting. (c) WT or mutant cyclin D1 (K149R, T286A, DM) construct was stably transfected into HCT-116 cells. Then the cells were treated with As2O3 for 16 h. Cyclin D1 protein levels were detected using anti-HA-antibody by western blotting. (e) TUNEL staining. WT or mutant cyclin D1 (K149R, T286A) construct was stably transfected into HCT-116 cells. Then the cells were treated with As2O3 (2.5 μM) for 16 h. The apoptotic cells were detected using Promega's DEADEND Colorimetric TUNEL System. Yellow arrows are pointing at apoptotic cells. (f) Flow cytometry. WT or mutant cyclin D1 (K149R) construct was stably transfected into HCT-116 cells. Then the cells were treated with As2O3 for 16 h (2.5 μM). Cell cycle progression was detected by flow cytometry. (As, arsenic trioxide)
(§2) SUMOylated cyclin D1 or ubiquitylated cyclin D1 was detected by co-immunoprecipitation using anti-SUMO-2/3 antibody or anti-ubiquitin antibody conjugated beads (Enzo Life Science), followed by immunoblotting with anti-cyclin D1 antibody or anti-HA antibody for cyclin D1 detection.

cyclin D1 [2] = target: T2, cyclin D1 (Homo sapiens, UniProt P24385); assay: as above; type: cell-based
T2 construct: endogenous in cells; host or cells: HCT-116
T2 sequence (P24385 whole entry): as the sequence (P24385 whole entry T286A) above, with A286T counted along it
Method: as §1, §2

HCT-116 cells [3] = assay: TUNEL staining of apoptotic cells; type: cell-based, human; settings: 16 h
Method: as §1
Cell apoptosis was detected using fluorescent in situ terminal deoxynucleotidyl transferase-mediated uridine 5′-triphosphate-biotin nick end labeling (TUNEL staining). Sections were first permeabilized in 0.1% Triton X-100 in phosphate-buffered saline (PBS) for 8 mins. TUNEL reaction mixture was obtained by adding terminal deoxynucleotidyl transferase to nucleotide mixture, as instructed by the manufacturer's manual (DEADEND Fluorometric TUNEL System, Promega). Sections were counterstained nuclei with 4′-6-Diamidino-2-phenylindole (DAPI).

cyclin D1 [4] = assay: Cyclin D1 protein levels by western blotting in HCT-116 cells; type: cell-based, human; settings: HCT-116 cells, Itch siRNA, As2O3 2.5 μM, 48 h
Method: as §1
(§3) 48 h later, the cyclin D1 protein levels were detected through western blotting.
(§4) Western blotting and immunoprecipitation (IP) were performed as previously described (54). The interaction between endogenous Cyclin D1 and Itch was determined in HEK293 cells. Proteasome inhibitor MG132 (10 μM) (Sigma, St. Louis, Mo.) was added to the cell culture 6 hours before cells were harvested for immunoprecipitation assay. […]

cyclin D1 [5] = target: T3, cyclin D1 (Homo sapiens, UniProt P24385, K149R/T286A); assay: as above; type: cell-based; settings: HCT-116 cells stably expressing K149R/T286A mutant cyclin D1, treated 16 h
T3 construct: endogenous in cells; host or cells: HCT-116
T3 sequence (P24385 whole entry K149R/T286A): as the sequence (P24385 whole entry T286A) above, with K149R counted along it
Method: as §1, §3, §4

cyclin D1 [6] = target: T4, cyclin D1 (Homo sapiens, UniProt P24385, K149R); assay: as above; type: cell-based; settings: HCT-116 cells stably expressing K149R mutant cyclin D1, treated 16 h
T4 construct: endogenous in cells; host or cells: HCT-116
T4 sequence (P24385 whole entry K149R): as the sequence (P24385 whole entry T286A) above, with K149R, A286T counted along it
Method: as §1, §3, §4

tumor = settings: reference 52; cited from earlier work
solid and liquid tumors = settings: references 48-51; cited from earlier work
HCT-116 cells [7] = assay: Cell cycle analysis by flow cytometry; type: cell-based, human; settings: HCT-116 cells transfected with K149R mutant cyclin D1 compared with WT, As2O3 2.5 μM, 16 h
Method: as §1, with “WT or mutant cyclin D1 (K149R, T286A) construct was stably transfected into HCT-116 cells. Then the cells were treated with As2O3 (2.5 μM) for 16 h.” left out, “Yellow arrows are pointing at apoptotic cells. (f) Flow cytometry. WT or mutant cyclin D1 (K149R) construct was stably transfected into HCT-116 cells. Then the cells were treated with As2O3 for 16 h (2.5 μM).” left out, “(As, arsenic trioxide)” left out
FACS analysis was performed as described in the research by Santra et al (55). […] FACS samples were analyzed with a FACSCANTO Flow Cytometry System (BD Biosciences). And the data were analyzed using FlowJo 7.6 software according to the manufacturer's instruction.

cyclin D1 [8] = assay: Cyclin D1 protein levels by western blotting in transfected HEK293 cells with or without MG132; type: cell-based, human
Method: Ubc9 (a), SUMO1 (b), SUMO2 (c), SUMO3 (d) together with SENP1 constructs was co-transfected with cyclin D1 into HEK293 cells in the absence or presence of proteasome inhibitor MG132 (10 μM, 6 h of incubation). Cyclin D1 protein levels were detected through western blotting. (e) siRNA specific for Ubc9 was transiently transfected in human colon cancer cell HCT116 cells. Endogenous cyclin D1 protein levels were detected through western blotting. (f) In vivo SUMOylation and ubiquitination assay. HA-cyclin D1 was co-transfected with Ubc9 and SENP1 expression plasmids into HEK293 cells in the presence of MG132 (10 μM, 6 h of incubation). […]
(a) Cell lysates were extracted from different tissues of wt or Itch-KO mice. Endogenous cyclin D1 protein levels were detected using anti-cyclin D1 antibody by western blotting. […] Endogenous cyclin D1 protein levels were detected using anti-cyclin D1 antibody by western blotting. […] Cyclin D1 protein levels were detected using anti-HA antibody by western blotting. […] 24 h after transfection, the cell lysates were collected, the ubiquitylated cyclin D1 was detected as described in FIG. 1f. […] Cyclin D1 protein levels were detected using anti-HA antibody by western blotting. […]
Western blotting and immunoprecipitation (IP) were performed as previously described (54). The interaction between endogenous Cyclin D1 and Itch was determined in HEK293 cells. […]

## arsenic trioxide [As2O3]
Cyclin D1 [1]
  SUMOylation, polyubiquitination and degradation of cyclin D1: induced SUMOylation, polyubiquitination and degradation of cyclin D1
Cyclin D1 [2]; HCT-116 cells stably expressing WT cyclin D1, treated 1 and 16 hours
  SUMOylation, polyubiquitination and degradation of cyclin D1: induced SUMOylation, polyubiquitination and degradation of cyclin D1
Cyclin D1 [2]; HCT-116 cells, As2O3 2.5 μM, 1 h after treatment
  SUMOylated- and polyubiquitinated-cyclin D1: accumulated
Cyclin D1 [2]; HCT-116 cells, As2O3 2.5 μM, after 16 h treatment
  modified (SUMOylated/polyubiquitinated) cyclin D1: disappeared
HCT-116 cells [3]; HCT-116 cells stably transfected with K149R mutant cyclin D1, As2O3 2.5 μM
  cell apoptosis (TUNEL): much lower
HCT-116 cells [3]; HCT-116 cells stably transfected with K149R mutant cyclin D1, As2O3 2.5 μM, listed as arsenic trioxide
  cell apoptosis (TUNEL): significantly decreased
HCT-116 cells [3]; HCT-116 cells stably transfected with T286A cyclin D1, As2O3 2.5 μM
  cell apoptosis (TUNEL): induced accelerated cell apoptosis
HCT-116 cells [3]; HCT-116 cells stably transfected with WT cyclin D1, As2O3 2.5 μM
  cell apoptosis (TUNEL): induced accelerated cell apoptosis
Cyclin D1 [4]
  degradation of cyclin D1 under silencing of Itch expression: did not abrogated degradation of cyclin D1
Cyclin D1 [5]
  degradation of cyclin D1: no effect
Cyclin D1 [6]
  degradation of cyclin D1: no effect
tumor
  tumor size in nude mice: tumor shrink
Solid and liquid tumors
  cell apoptosis in solid and liquid tumors: induces cell apoptosis
HCT-116 cells [7]
  G1 arrest: failed to induce efficient G1 arrest

## CC(C)C[C@@H](C=O)NC(=O)[C@H](CC(C)C)NC(=O)[C@H](CC(C)C)NC(=O)OCc1ccccc1 [MG132] (Cbz-Leu-Leu-Leu-aldehyde)
Cyclin D1 [2]; HCT-116 cells, As2O3 2.5 μM 16 h, MG132 10 μM 6 h
  effect on As2O3-mediated cyclin D1 SUMOylation and polyubiquitination: reversed
Cyclin D1 [8]; HEK293 cells co-transfected with Itch and cyclin D1, MG132 10 μM 6 h
  effect on Itch-induced cyclin D1 degradation: reversed the effect of Itch on cyclin D1 degradation
Cyclin D1 [8]; HEK293 cells co-transfected with Ubc9 and cyclin D1, MG132 10 μM 6 h
  effect on degradation of cyclin D1 caused by Ubc9: reversed the degradation of cyclin D1
